The values below come from US8951752B2, “N-demethyase genes and uses thereof” (priority 2011, dated 2015).

Several values for one entry are separate records, joined by “and”; a condition that tells them apart may be missing. Identical values can stand only once. Some results are limits rather than exact numbers.

Test [1] concerns recombinant E. coli cells that contain NdmABCD. In words: Conversion by recombinant E. coli cells without NdmE. In kind it is cell-based. The note with it: absence of NdmE.
Test [2] addresses T1, N-demethylase (Ndm: NdmA and NdmB subunits) (Pseudomonas putida, UniProt H9N289+H9N290).
T1 construct: lane 3, natural Ndm purified from P. putida CBB5; made in house; host or cells: purified from the natural strain Pseudomonas putida CBB5 (DEAE, Phenyl and Q Sepharose); not recombinant
T1 sequence (H9N289 1-351): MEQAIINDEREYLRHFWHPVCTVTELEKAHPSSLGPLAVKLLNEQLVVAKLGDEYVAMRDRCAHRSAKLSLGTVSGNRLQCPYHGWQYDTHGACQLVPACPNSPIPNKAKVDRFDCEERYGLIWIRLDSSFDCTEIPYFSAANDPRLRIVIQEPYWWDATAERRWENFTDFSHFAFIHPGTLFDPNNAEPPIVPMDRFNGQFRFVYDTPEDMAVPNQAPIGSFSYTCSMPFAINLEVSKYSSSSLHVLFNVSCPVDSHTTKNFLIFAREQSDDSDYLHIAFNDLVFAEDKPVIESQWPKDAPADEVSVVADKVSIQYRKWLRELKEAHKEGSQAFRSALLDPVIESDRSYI
T1 sequence (H9N290 1-355): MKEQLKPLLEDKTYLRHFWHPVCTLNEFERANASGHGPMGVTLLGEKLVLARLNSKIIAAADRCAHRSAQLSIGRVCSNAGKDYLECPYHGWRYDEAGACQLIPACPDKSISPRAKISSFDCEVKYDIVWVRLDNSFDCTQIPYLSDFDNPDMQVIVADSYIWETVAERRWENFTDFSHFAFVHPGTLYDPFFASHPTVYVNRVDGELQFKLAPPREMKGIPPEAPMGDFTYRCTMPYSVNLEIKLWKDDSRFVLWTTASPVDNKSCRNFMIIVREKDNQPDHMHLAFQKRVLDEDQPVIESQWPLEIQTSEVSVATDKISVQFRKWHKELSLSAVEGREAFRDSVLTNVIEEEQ
In words: Methylxanthine N-demethylase activity assay with purified Ndm plus partially purified Ccr. In kind it is biochemical, Pseudomonas putida CBB5. The note with it: for product formed from paraxanthine: 7.4 mU / 7.4 units of Ndm, 90 minutes; for Products identified: same products at 500 and 200 μM substrate; for Relative N-demethylase activity: relative to paraxanthine. The protocol: Methylxanthine N-demethylase activity assay contained, in 1-mL total volume, 0.5 mM methylxanthine, 1 mM NADH, 50 μM Fe(NH4)2(SO4)2, and an appropriate amount of Ndm (0.08-7.5 mg protein, depending on purity of the protein) in 50 mM KPi buffer. Approximately 4 U of partially purified Ccr was added to reaction mixture when assaying Ndm in Phenyl Sepharose and Q Sepharose eluant-fractions (Ccr was not added to the enzyme reaction mixture when assaying Ndm activity in DEAE Sepharose eluant-fractions because Ccr co-eluted with Ndm). The reaction mixture was incubated at 30° C. with 300 rpm shaking on an incubating microplate shaker (VWR). Periodically, a small aliquot was sampled from the reaction mixture and mixed with equal volume of acetonitrile for quantifying concentrations of methylxanthines and N-demethylated products by HPLC. One unit of N-demethylase activity was defined as the consumption of one μmole methylxanthine per minute. When Ndm was coupled with the reductase and ferredoxin components of naphthalene dioxygenase of Pseudomonas sp. strain 9816 (Haigler & Gibson, 1990a; Haigler & Gibson, 1990b), 30 and 100 μg of the respective proteins were used. Spinach ferredoxin reductase and ferredoxin were also substituted for Ccr as described by Subramanian et al. (1979).
Determination of Kinetic Parameters. Apparent kinetic parameters of Ndm were determined by measuring the initial rate of disappearance (vo) of paraxanthine or 7-methylxanthine in 50 mM KPi buffer (pH 7.5) at 30° C. The paraxanthine and 7-methylxanthine concentrations ([S]) used in these experiments were from 20 to 500 μM. Substrates were incubated with Ndm and Ccr under standard conditions for 15 minutes. At 1, 5, 10, and 15 minutes, samples were removed from the reaction mixtures to quantitate substrate concentrations by HPLC. Plots of substrate concentrations against time were used to determine the initial rates of disappearance of substrates which were linear over 15 minutes. The apparent kinetic parameters were determined from Michaelis-Menten plots of Vo against [S] fitted with the equation
Determination of Oxygen Requirement. Oxygen consumption by Ndm during N-demethylation of paraxanthine was determined in a closed reaction vessel equipped with a Clarke-type oxygen electrode (Digitial Modell 0, Rank Brothers Ltd., Cambridge, England). The electrode was calibrated by using glucose oxidase (Sigma) and glucose for consumption of oxygen. Ndm activity assay was performed at 30° C. in a total volume of 1 ml of air-saturated 50 mM KPi buffer (pH 7.5) with 100 μM paraxanthine, 200 μM NADH, 50 μM Fe(NH4)2(SO4)2, 0.2 mg purified Ndm, and 4 U partially purified Ccr. The reaction was initiated by adding Ndm and partially purified Ccr after equilibration of all other reaction components for 3.3 minutes. After 13 minutes, a 100-μL aliquot was withdrawn from the reaction, immediately mixed with equal volume of acetonitrile to stop the enzyme reaction, and analyzed for N-demethylation product by HPLC. Background oxygen consumption, possibly due to NADH oxidase enzyme activity in the partially purified Ccr, was quantitated in control reactions containing all reaction components except paraxanthine.
Formaldehyde Determination. […] Twenty μL Nash reagent was added to 50 μl Ndm reaction sample plus 50 μl acetonitrile. This mixture was incubated at 51° C. for 12 minutes.

The subject of test [3] is E. coli cells expressing NdmABCDE. The test is described as follows: Conversion by recombinant E. coli cells with NdmE. The test is classed as cell-based.
The next test deals with T2, NdmB-His6 (Pseudomonas putida, UniProt H9N290).
T2 construct: made in house; host or cells: E. coli BL21(DE3)
T2 sequence (H9N290 1-355): T1 sequence (H9N290 1-355)
The test is described as follows: Methylxanthine N-demethylase assay and kinetics, NdmB-His6 with His6-NdmD. The test is classed as biochemical, Pseudomonas putida CBB5. The protocol:
(§1) Methylxanthine N-demethylase activity assay contained, in 1-ml total volume, 0.5 mM methylxanthine, 1 mM NADH, 50 μM Fe(NH4)2(SO4)2, and an appropriate amount of NdmA-His6 or NdmB-His6 (7.4 μg-2.5 mg protein depending on substrate specificity) in 50 mM KPi buffer (pH 7.5). Approximately 4 U of partially purified reductase, prepared as described previously (Summers et al., 2011) or 59 U of purified His6-NdmD was added to reaction mixture. Catalase from bovine liver (4,000 U) was also added to reactions containing His6-NdmD. The reaction mixture was incubated at 30° C. with 300 rpm shaking on an incubating microplate shaker (VWR, Radnor, Pa.). Periodically, a small aliquot was sampled from the reaction mixture and mixed with equal volume of acetonitrile for quantifying concentrations of methylxanthines and N-demethylated products by HPLC. One unit of N-demethylase activity was defined as the consumption of one […] methylxanthine per minute.
(§2) Apparent kinetic parameters of NdmA-His6 and NdmB-His6 were determined by measuring the initial rate of disappearance (vo) of methylxanthines in 50 mM KPi buffer (pH 7.5) at 30° C. The initial substrate concentrations (ESI) used in these experiments were from 25 to 500 μM. Substrates were incubated with His6-NdmD plus either NdmA-His6 or NdmB-His6 under standard conditions for 15 minutes. At 1, 5, 10, and 15 minutes, samples were removed from the reaction mixtures to quantitate substrate concentrations by HPLC. Plots of substrate concentrations against time were used to determine the initial rates of disappearance of substrates which were linear over 15 minutes. The apparent kinetic parameters were determined from Michaelis-Menten plots of vo against [S] fitted with the equation

In the next test the target is T3, NdmA-His6 (Pseudomonas putida, UniProt H9N289).
T3 construct: made in house; host or cells: E. coli BL21(DE3)
T3 sequence (H9N289 1-351): T1 sequence (H9N289 1-351)
In words: Methylxanthine N-demethylase assay and kinetics, NdmA-His6 with His6-NdmD. In kind it is biochemical, Pseudomonas putida CBB5. The method, then:
as §1, §2

For another test, the target named is His6-NdmD (Pseudomonas putida, UniProt H9N291). The test is described as follows: N-demethylase activity of purified His6-NdmD alone. The test is classed as biochemical, Pseudomonas putida CBB5.
The next test concerns Pseudomonas putida CBB5. In words: Resting cell degradation of caffeine in coffee extract, black tea extract and buffer by CBB5. The test is classed as cell-based.
For another test, the system named is bacteria. To be noted: 0.1% concentration; cited from earlier work.
Test [4] has as its system cell extracts prepared from P. putida CBB5. In words: NADH-dependent N-demethylase activity of CBB5 cell extracts. In kind it is biochemical, Pseudomonas putida CBB5. To be noted: 0.5 mM substrate, 7.2 mg mL^−1 protein.

Sequence of His6-NdmD (H9N291 1-588 with tags or gaps): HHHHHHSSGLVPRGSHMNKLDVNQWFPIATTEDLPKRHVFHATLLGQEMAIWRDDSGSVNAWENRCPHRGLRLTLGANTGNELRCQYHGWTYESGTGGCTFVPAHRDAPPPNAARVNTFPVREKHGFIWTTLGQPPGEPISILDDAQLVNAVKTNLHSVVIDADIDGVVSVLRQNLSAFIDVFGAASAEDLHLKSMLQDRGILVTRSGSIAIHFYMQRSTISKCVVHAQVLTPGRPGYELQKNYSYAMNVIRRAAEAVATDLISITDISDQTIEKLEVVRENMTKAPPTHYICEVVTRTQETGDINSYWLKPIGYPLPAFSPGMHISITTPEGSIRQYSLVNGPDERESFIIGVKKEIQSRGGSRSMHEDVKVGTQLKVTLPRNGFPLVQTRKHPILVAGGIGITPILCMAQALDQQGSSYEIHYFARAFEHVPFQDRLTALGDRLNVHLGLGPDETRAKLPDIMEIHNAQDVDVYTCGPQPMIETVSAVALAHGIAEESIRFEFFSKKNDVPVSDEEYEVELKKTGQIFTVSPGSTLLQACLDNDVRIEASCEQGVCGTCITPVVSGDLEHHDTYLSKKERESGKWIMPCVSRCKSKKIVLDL

Regarding `Cn1cnc2[nH]c(=O)[nH]c(=O)c21` [7-Methylxanthine, 7-methylxanthine], the “N-demethylation by NdmC fraction” value with NdmC is given as “sole substrate”. The conversion by cells result in [1] is listed as “remained untouched”. For the same compound, the results for the “product formed from paraxanthine” value in test [2] and in [2] (listed as 7-methylxanthine) were 126.9 ± 6.40 µM and 126.9 ± 6.4 µM, respectively. In addition, the N-demethylation product present result in [2] (from paraxanthine, after 13 minutes) is reported as “Approximately 39.9 μM”. The Products identified entry in test [2] is listed as “xanthine”. The “Relative N-demethylase activity” value in test [2] (substrate conc. 200 μM) stood at 664.2 ± 61.1; in [2] (substrate conc. 500 μM), 455.7 ± 17.6. Moreover, in [3], the conversion product result is “xanthine”. Moreover, the figures for the “N-demethylase activity” value on NdmB-His6 (NdmB) and on NdmA-His6 (NdmA) were “no activity” and “inactive”, respectively. Moreover, the Km entry was “∞” at NdmB-His6 (NdmB-His6, 30° C., pH 7.5, ∞ where no activity) and “∞” at NdmA-His6 (NdmA-His6, 30° C., pH 7.5, ∞ where no activity). In addition, the “activity of purified His6-NdmD” value at His6-NdmD is “no activity”.
With `Cn1c(=O)c2c(ncn2C)n(C)c1=O` [Caffeine, 1,3,7-trimethylxanthine], the “N-demethylation by NdmC fraction” value with NdmC was “not N-demethylated”. The conversion by cells in test [1] is recorded as 7-methylxanthine from caffeine, but not xanthine. The Products identified result in test [2] is “paraxanthine, and theobromine, and 7-methylxanthine, and xanthine”. For the same compound, the “Relative N-demethylase activity” value worked out at 48.2 ± 4.8 in test [2] (substrate conc. 200 μM) and 30.8 ± 1.7 in [2] (substrate conc. 500 μM). For the same compound, the conversion product entry in [3] is given as “xanthine”. For the same compound, the results for the “time for caffeine degradation” value in the test with Pseudomonas putida CBB5 (18 mM (highest concentration) caffeine in buffer solution), in the test on Pseudomonas putida CBB5 (18 mM caffeine in coffee extract) and in the test on Pseudomonas putida CBB5 (diluted black tea extract (1 mM caffeine)) were 2 h, 6 h and at most 0.667 h, respectively. For the same compound, the “time for caffeine disappearance” value with Pseudomonas putida CBB5 (undiluted black tea extract (8 mM caffeine)) was 40 min. Besides, the Product result at NdmB-His6 (NdmB-His6) is given as “Paraxanthine”; on NdmA-His6 (NdmA-His6) it was “Theobromine”; at NdmA-His6 (NdmA-His6, listed as caffeine) it was “theobromine”. The “effect on protein synthesis in bacteria and yeast” value in the test on bacteria was “inhibits protein synthesis”. In addition, the “degradation rate compared with paraxanthine” value in [4] is “significantly slower”.
